Measurements taken from patent US9676782B2, “Substituted pyrazolo[1,5-a]pyrazines as negative allosteric modulators of metabotropic glutamate receptor 3” (Vanderbilt University, priority 2014, dated 2017).
pEC50, pIC50: −log10 of the molar value. Like-named read-outs stand apart in the source and are kept apart here.

Columns and labels:
rat mGlu3 = rat mGlu3 (Rattus norvegicus (Rat), UniProt P31422); test: mGlu3 Ca2+ flux assay; type: cell-based; settings: for remaining activity at 30 µM: amplitude of response at 30 μM test compound as % of maximal response to glutamate, read-out: rat mGlu3 Glu max (%); for mGlu3 Glu max: response at 30 μM compound as percentage of maximal glutamate response
Experimental: (§1) The cells were grown overnight at 37° C. in the presence of 5% CO2. […] Dye was removed, 20 μL of assay buffer was added, and the plate was incubated for 10 minutes at room temperature. Ca^2+ flux was measured using the Functional Drug Screening System (FDSS7000, Hamamatsu, Japan). […] All test compounds were dissolved and diluted to a concentration of 10 mM in 100% DMSO. […] Calcium fluorescence measures were recorded as fold over basal fluorescence; raw data was then normalized to the maximal response to glutamate. […] The raw data file containing all time points was used as the data source in the analysis template. This was saved by the FDSS as a tab-delimited text file. Data were normalized using a static ratio function (F/F0) for each measurement of the total 360 values per well divided by each well's initial value. […] This is sufficient time to capture the peak amplitude of the cellular calcium response. […] EC50 values for test compounds were generated by fitting the normalized values versus the log of the test compound concentration (in mol/L) using a 4 parameter logistic equation where none of the parameters were fixed. Each of the three values collected at each concentration of test compound were weighted evenly.

rat mGlu5 = rat mGlu5 (Rattus norvegicus (Rat), UniProt P31424); test: mGlu5 Ca2+ flux assay; type: cell-based; settings: for Fold selectivity (mGlu3 vs. mGlu5): ratio of rat mGlu5 EC50 or IC50 to rat mGlu3 IC50; for Emax at 30 µM: PAM, amplitude of response at 30 μM test compound as % of maximal response to glutamate, read-out: rat mGlu5 Glu max (%); for mGlu5 Glu max: response at 30 μM compound as percentage of maximal glutamate response
Experimental: as §1, with “for 5” for “for 10”

[1] = NAM potency, decrease of glutamate EC80 response, >30,000 = no measurable activity, >10,000 = no plateau, read-out: rat mGlu3 IC50
[2] = read-out: rat mGlu5 EC50 or IC50
[3] = Table 2 compounds with X = O, read-out: mGlu3 IC50
[4] = Table 2 compounds with X = O, read-out: mGlu5 EC50

rat mGlu5, sequence (P31424 21-1203): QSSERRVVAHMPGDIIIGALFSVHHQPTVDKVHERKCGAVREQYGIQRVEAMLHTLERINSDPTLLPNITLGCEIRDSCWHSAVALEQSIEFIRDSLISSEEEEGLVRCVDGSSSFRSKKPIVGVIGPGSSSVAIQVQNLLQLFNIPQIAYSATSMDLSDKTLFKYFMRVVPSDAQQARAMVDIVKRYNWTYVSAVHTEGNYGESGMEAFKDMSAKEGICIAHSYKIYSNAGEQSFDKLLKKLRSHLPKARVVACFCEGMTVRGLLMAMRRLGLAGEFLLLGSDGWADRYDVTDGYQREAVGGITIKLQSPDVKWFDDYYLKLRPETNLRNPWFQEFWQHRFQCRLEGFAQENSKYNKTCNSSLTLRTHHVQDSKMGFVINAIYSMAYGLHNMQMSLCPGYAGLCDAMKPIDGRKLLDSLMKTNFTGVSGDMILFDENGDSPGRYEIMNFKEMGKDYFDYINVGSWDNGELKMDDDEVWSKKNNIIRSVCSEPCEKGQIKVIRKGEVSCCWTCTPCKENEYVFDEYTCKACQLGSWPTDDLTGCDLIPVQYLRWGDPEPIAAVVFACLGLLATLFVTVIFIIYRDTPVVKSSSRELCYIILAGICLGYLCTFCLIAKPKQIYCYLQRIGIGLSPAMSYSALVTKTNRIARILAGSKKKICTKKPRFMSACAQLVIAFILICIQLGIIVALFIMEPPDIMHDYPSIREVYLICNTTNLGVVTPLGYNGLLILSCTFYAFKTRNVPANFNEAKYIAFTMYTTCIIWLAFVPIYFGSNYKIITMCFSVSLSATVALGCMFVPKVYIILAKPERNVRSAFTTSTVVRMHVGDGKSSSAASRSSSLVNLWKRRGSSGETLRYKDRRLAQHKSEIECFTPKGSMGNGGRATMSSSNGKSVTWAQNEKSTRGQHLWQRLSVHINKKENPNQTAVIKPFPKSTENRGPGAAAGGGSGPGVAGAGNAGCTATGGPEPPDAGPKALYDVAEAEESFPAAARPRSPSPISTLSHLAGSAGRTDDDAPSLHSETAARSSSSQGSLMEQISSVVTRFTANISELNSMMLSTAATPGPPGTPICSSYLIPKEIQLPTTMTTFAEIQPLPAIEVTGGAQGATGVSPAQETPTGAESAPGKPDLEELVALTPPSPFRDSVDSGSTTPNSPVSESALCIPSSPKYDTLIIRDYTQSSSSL
rat mGlu3, sequence (P31422 23-879): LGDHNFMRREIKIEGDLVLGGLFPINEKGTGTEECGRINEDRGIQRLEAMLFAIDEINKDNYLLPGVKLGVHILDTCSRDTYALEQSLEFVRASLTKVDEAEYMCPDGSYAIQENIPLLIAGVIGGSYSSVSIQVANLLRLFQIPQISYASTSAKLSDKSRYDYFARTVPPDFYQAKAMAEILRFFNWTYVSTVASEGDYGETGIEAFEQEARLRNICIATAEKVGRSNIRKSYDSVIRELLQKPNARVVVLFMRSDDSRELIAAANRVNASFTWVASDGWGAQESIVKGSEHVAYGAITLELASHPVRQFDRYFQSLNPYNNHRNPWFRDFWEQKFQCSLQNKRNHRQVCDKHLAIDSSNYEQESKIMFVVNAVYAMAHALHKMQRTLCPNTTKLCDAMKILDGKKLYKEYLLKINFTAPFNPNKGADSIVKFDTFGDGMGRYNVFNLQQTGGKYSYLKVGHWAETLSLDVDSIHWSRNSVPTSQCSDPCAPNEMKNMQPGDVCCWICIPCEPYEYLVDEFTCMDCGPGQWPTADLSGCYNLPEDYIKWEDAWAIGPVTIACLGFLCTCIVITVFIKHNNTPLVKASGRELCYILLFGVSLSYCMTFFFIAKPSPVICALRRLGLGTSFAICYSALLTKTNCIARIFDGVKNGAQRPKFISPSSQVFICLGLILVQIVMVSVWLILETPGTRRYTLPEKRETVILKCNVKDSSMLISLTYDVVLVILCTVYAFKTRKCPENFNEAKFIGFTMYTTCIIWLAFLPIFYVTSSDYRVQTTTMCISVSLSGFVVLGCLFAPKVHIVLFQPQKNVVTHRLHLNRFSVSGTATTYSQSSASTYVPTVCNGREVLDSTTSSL

Row | Compound | pIC50 (rat mGlu3; [1]) | remaining activity at 30 µM (rat mGlu3) | Fold selectivity (mGlu3 vs. mGlu5) (rat mGlu5) | pEC50 (rat mGlu5; [2]) | Emax at 30 µM (rat mGlu5) | other results
1 | COc1ccc(N(C)Cc2cc3n(n2)CCN(c2ccc(C#N)cc2)C3=O)cc1 [Compound 118, 4-(2-(((4-methoxyphenyl)(methyl)amino)methyl)-4-oxo-6,7-dihydropyrazolo[1,5-a]pyrazin-5(4H)-yl)benzonitrile] | 5.71 | 1.63% | >15 | < 4.52 |  | 
2 | COc1ccccc1N(C)Cc1cc2n(n1)CCN(c1ccc(F)cc1)C2=O [Compound 85, 5-(4-fluorophenyl)-2-(((2-methoxyphenyl)(methyl)amino)methyl)-6,7-dihydropyrazolo[1,5-a]pyrazin-4(5H)-one] | 5.02 | -7.96% | >3.1 | < 4.52 |  | 
3 | COc1ccc(N(C)Cc2cc3n(n2)CCN(c2ccc(C)cc2)C3=O)cc1 [Compound 99, 2-(((4-methoxyphenyl)(methyl)amino)methyl)-5-(p-tolyl)-6,7-dihydropyrazolo[1,5-a]pyrazin-4(5H)-one] | 6.17 | 1.2% | >44 | < 4.52 |  | 
4 | C[C@@H]1CN(c2ccc(F)cc2)C(=O)c2cc(CNc3ccc(F)cc3)nn21 [Compound 56, (R)-5-(4-fluorophenyl)-2-(((4-fluorophenyl)amino)methyl)-7-methyl-6,7-dihydropyrazolo[1,5-a]pyrazin-4(5H)-one] | 5.94 | 2.97% | >25 | < 4.52 |  | 
5 | C[C@@H]1CN(c2ccc(F)cc2)C(=O)c2cc(CNc3ccccc3)nn21 [Compound 40, (R)-5-(4-fluorophenyl)-7-methyl-2-((phenylamino)methyl)-6,7-dihydropyrazolo[1,5-a]pyrazin-4(5H)-one] | 5.86 | 5.15% | 3.49 | 5.32 | 34.4% | 
6 | C[C@H]1CN(c2ccc(F)cc2)C(=O)c2cc(CNc3cccc(F)c3)nn21 [Compound 47, (S)-5-(4-fluorophenyl)-2-(((3-fluorophenyl)amino)methyl)-7-methyl-6,7-dihydropyrazolo[1,5-a]pyrazin-4(5H)-one] |  | 1.77% | 0.58 | 5.97 | 78.3% | pIC50 (rat mGlu3; read-out: rat mGlu3 IC50): 5.74
7 | COc1ccc(N(C)Cc2cc3n(n2)CCN(c2cc(Cl)cc(OC)c2)C3=O)cc1 [Compound 134, 5-(3-chloro-5-methoxyphenyl)-2-(((4-methoxyphenyl)(methyl)amino)methyl)-6,7-dihydropyrazolo[1,5-a]pyrazin-4(5H)-one] | 5.77 | 1.77% | >17 | < 4.52 |  | 
8 | O=C1c2cc(CNc3ccc(F)cc3F)nn2CCN1c1ccc(F)cc1 [Compound 28, 2-(((2,4-difluorophenyl)amino)methyl)-5-(4-fluorophenyl)-6,7-dihydropyrazolo[1,5-a]pyrazin-4(5H)-one] | 5.90 | 1.76% | 1.21 | 5.82 | 80.6% | 
9 | O=C1c2cc(CNc3ccccc3F)nn2CCN1c1ccc(F)cc1 [Compound 3, 5-(4-fluorophenyl)-2-(((2-fluorophenyl)amino)methyl)-6,7-dihydropyrazolo[1,5-a]pyrazin-4(5H)-one] | 6.03 | 1.73% | 2.62 | 5.61 | 95.7% | 
10 | C[C@H]1CN(c2ccc(F)cc2)C(=O)c2cc(CNc3ccc(F)cc3F)nn21 [Compound 76, (S)-2-(((2,4-difluorophenyl)amino)methyl)-5-(4-fluorophenyl)-7-methyl-6,7-dihydropyrazolo[1,5-a]pyrazin-4(5H)-one] | 5.93 | 0.35% | 7.00 | 5.09 | 86.1% | 
11 | O=C1c2cc(COc3ccccc3)nn2CCN1c1ccc(F)cc1 [drawing 29 X = O, reference compound] |  |  |  |  |  | pIC50 (rat mGlu3; [3]): 6.56; mGlu3 Glu max (rat mGlu3; Table 2 compounds with X = O): 2%; pEC50 (rat mGlu5; [4]): 7.36; mGlu5 Glu max (rat mGlu5; Table 2 compounds with X = O): 79%
12 | COc1ccc(N(C)Cc2cc3n(n2)CCN(c2ccccc2OC)C3=O)cc1 [Compound 119, 5-(2-methoxyphenyl)-2-(((4-methoxyphenyl)(methyl)amino)methyl)-6,7-dihydropyrazolo[1,5-a]pyrazin-4(5H)-one] | 5.48 | 1.3% | >9.1 | < 4.52 |  | 
13 | Cc1ccccc1NCc1cc2n(n1)[C@@H](C)CN(c1ccc(F)cc1)C2=O [Compound 45, (S)-5-(4-fluorophenyl)-7-methyl-2-((o-tolylamino)methyl)-6,7-dihydropyrazolo[1,5-a]pyrazin-4(5H)-one] | 5.48 | 1.32% | >2.9 | < 5.00 | 37.1% | 
14 | COc1ccc(N(C)Cc2cc3n(n2)CCN(c2ccccn2)C3=O)cc1 [Compound 117, 2-(((4-methoxyphenyl)(methyl)amino)methyl)-5-(pyridin-2-yl)-6,7-dihydropyrazolo[1,5-a]pyrazin-4(5H)-one] | 5.56 | 1.59% | >10 | < 4.52 |  | 
15 | COc1ccc(N(C)Cc2cc3n(n2)CCN(c2ccc(Cl)cc2F)C3=O)cc1 [Compound 125, 5-(4-chloro-2-fluorophenyl)-2-(((4-methoxyphenyl)(methyl)amino)methyl)-6,7-dihydropyrazolo[1,5-a]pyrazin-4(5H)-one] | 5.86 | 1.47% | >21 | < 4.52 |  | 
16 | C[C@H]1CN(c2ccc(F)cc2)C(=O)c2cc(CNc3ccccc3F)nn21 [Compound 43, (S)-5-(4-fluorophenyl)-2-(((2-fluorophenyl)amino)methyl)-7-methyl-6,7-dihydropyrazolo[1,5-a]pyrazin-4(5H)-one] | 5.60 | 1.61% | 2.06 | 5.28 | 90.6% | 
17 | O=C1c2cc(CNc3ccc(OC(F)(F)F)cc3)nn2CCN1c1ccc(F)cc1 [Compound 21, 5-(4-fluorophenyl)-2-(((4-(trifluoromethoxy)phenyl)amino)methyl)-6,7-dihydropyrazolo[1,5-a]pyrazin-4(5H)-one] |  | 13.3% | >3 | < 4.52 |  | pIC50 (rat mGlu3; read-out: rat mGlu3 IC50): < 5.00
18 | O=C1c2cc(COc3ccc(F)cc3)nn2CCN1c1ccc(F)cc1 [drawing 32 X = O, reference compound] |  |  |  |  |  | pIC50 (rat mGlu3; [3]): 6.97; mGlu3 Glu max (rat mGlu3; Table 2 compounds with X = O): 1%; pEC50 (rat mGlu5; [4]): 6.97; mGlu5 Glu max (rat mGlu5; Table 2 compounds with X = O): 71%
19 | CC(C)(C)c1ccc(NCc2cc3n(n2)CCN(c2ccc(F)cc2)C3=O)cc1 [Compound 24, 2-(((4-(tert-butyl)phenyl)amino)methyl)-5-(4-fluorophenyl)-6,7-dihydropyrazolo[1,5-a]pyrazin-4(5H)-one] |  |  |  |  |  | pIC50 (rat mGlu3; read-out: rat mGlu3 IC50): < 4.52
20 | O=C1c2cc(CNc3ccc(F)cc3)nn2CCN1c1ccc(F)cc1 [drawing 32 X = NH] |  |  |  |  |  | pIC50 (rat mGlu3; Table 2 compounds with X = NH, read-out: mGlu3 IC50): 5.94; mGlu3 Glu max (rat mGlu3; Table 2 compounds with X = NH): 2%
21 | O=C1c2cc(CNc3ccc(Br)cc3)nn2CCN1c1ccc(F)cc1 [Compound 16, 2-(((4-bromophenyl)amino)methyl)-5-(4-fluorophenyl)-6,7-dihydropyrazolo[1,5-a]pyrazin-4(5H)-one] |  |  |  |  |  | pIC50 (rat mGlu3; read-out: rat mGlu3 IC50): < 4.52
